Results on eleven molecules are retold here after ChEMBL document CHEMBL1201862, “PubChem BioAssay data set” (2004).

Molecules are shown by their SMILES.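 1) Cells in 96-well plates. 2) Compound, 48 h, 5 concentrations. 3) Linear interpolation between surrounding doses. 4) Unreached endpoint = highest concentration. Abbreviation: GI50, concentration required for 50% inhibition of growth.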 The source made the active and inactive calls. No stated cut-off is given here; in the data, active = GI50 up to about 1.1 µM and inactive = higher.

Among the test systems are SK-MEL-5; HT-29; NCI-H460; UACC-62; EKVX; RXF 393; SK-MEL-28; SN12C; A549; OVCAR-4; CCRF-CEM; MOLT-4; HCT-116; HOP-92; OVCAR-8; NCI-H522; KM12; SF-268; NCI-H226; OVCAR-5.
Holding throughout (experiment): inhibition of tumour cell growth, NCI panel, 48 h

`COc1ccc(C2C3=C(COC3=O)Oc3cc4c(cc32)OCO4)cc1` (stereo not drawn): the GI50 was 11.7 µM (inactive) with SK-MEL-5; 3.81 µM (inactive) with HT-29; 10.8 µM (inactive) in the assay on NCI-H460; 10.6 µM (inactive) in the assay on UACC-62; 50.5 µM (inactive) in the assay on EKVX; 19.1 µM (inactive) in the assay with RXF 393. The GI50 with SK-MEL-28 is 47.9 µM (inactive); in the assay on SN12C, 27.9 µM (inactive); with A549 it was 9.18 µM (inactive); with OVCAR-4, 27.3 µM (inactive); with CCRF-CEM, 6.46 µM (inactive); with MOLT-4, 6.71 µM (inactive). The GI50 in the assay with HCT-116 was 13.2 µM (inactive); with HOP-92 it was 14.9 µM (inactive); in the assay on OVCAR-8, 36.2 µM (inactive).

As for `Cn1c(S)nc(C(N)=O)c1N`, the GI50 in the assay on SK-MEL-5, in the assay on NCI-H522, in the assay on HT-29, in the assay with NCI-H460, with UACC-62 and in the assay on EKVX was > 100 µM (inactive) each time. Also, the GI50 in the assay on KM12, in the assay with RXF 393, in the assay on SK-MEL-28, in the assay with SN12C, in the assay with A549 and in the assay with OVCAR-4 was > 100 µM (inactive) throughout. For the same molecule, the GI50 with CCRF-CEM, in the assay on MOLT-4, in the assay on SF-268, in the assay with NCI-H226, with OVCAR-8 and in the assay on OVCAR-5 was > 100 µM (inactive) throughout.

In the case of `COc1ccc(-c2nc3ccccc3s2)cc1OC`, the GI50 with SK-MEL-5 was 10.5 µM (inactive); with HT-29, 31.6 µM (inactive); in the assay with NCI-H460 it was 20.1 µM (inactive); in the assay on UACC-62, 37.4 µM (inactive); in the assay on KM12, 30.2 µM (inactive); in the assay on SK-MEL-28, > 100 µM (inactive). Also, the GI50 with SN12C is 83.6 µM (inactive); with A549, 51.6 µM (inactive); in the assay on OVCAR-4, 46.6 µM (inactive); in the assay on CCRF-CEM, 76.9 µM (inactive); with MOLT-4, > 100 µM (inactive); in the assay on HCT-116, 45.1 µM (inactive). The GI50 is 6.59 µM (inactive) with HOP-92, 63.4 µM (inactive) in the assay with OVCAR-8 and > 100 µM (inactive) in the assay on OVCAR-5.

In the case of `CC(=O)OCC1OC(OC(C)=O)C(NC#N)C(OC(C)=O)C1OC(C)=O` (stereo not drawn), the GI50 was 73.1 µM (inactive) in the assay with SK-MEL-5; > 100 µM (inactive) with NCI-H522; > 100 µM (inactive) with HT-29; 68.1 µM (inactive) in the assay with NCI-H460; > 100 µM (inactive) in the assay on UACC-62; > 100 µM (inactive) in the assay with KM12. In addition, the GI50 with RXF 393 is > 100 µM (inactive); in the assay with SK-MEL-28, > 100 µM (inactive); in the assay with SN12C, > 100 µM (inactive); in the assay on A549, > 100 µM (inactive); with OVCAR-4, > 100 µM (inactive); with CCRF-CEM it was 43.7 µM (inactive). The GI50 is 86.5 µM (inactive) in the assay on MOLT-4; > 100 µM (inactive) in the assay with HCT-116; > 100 µM (inactive) in the assay with HOP-92; > 100 µM (inactive) in the assay on SF-268; > 100 µM (inactive) with OVCAR-8; > 100 µM (inactive) with OVCAR-5.

As to `C[N+]1(C)CCCC(C#N)(c2ccccc2)CC1` (stereo not drawn), the GI50 in the assay with SK-MEL-5, in the assay on HT-29, with NCI-H460, in the assay with EKVX, in the assay on KM12 and in the assay with RXF 393 was > 100 µM (inactive) throughout. The GI50 in the assay with SK-MEL-28, in the assay with A549, in the assay on OVCAR-4, with CCRF-CEM, with MOLT-4 and in the assay with HCT-116 was > 100 µM (inactive) throughout. The GI50 with HOP-92, in the assay on SF-268, with OVCAR-8 and with OVCAR-5 was > 100 µM (inactive) each time.

As to `CN1CCc2c1nc(-c1cccnc1)c1c2N(C)CC1`, the GI50 with SK-MEL-5 was > 100 µM (inactive); in the assay on HT-29 it was 95.3 µM (inactive); in the assay on NCI-H460, > 100 µM (inactive); in the assay on UACC-62, > 100 µM (inactive); with EKVX, > 100 µM (inactive); with KM12, > 100 µM (inactive). Besides, the GI50 in the assay on RXF 393, in the assay on SN12C, in the assay on A549, with OVCAR-4, in the assay with CCRF-CEM and in the assay with MOLT-4 was > 100 µM (inactive) throughout. For the same molecule, the GI50 is > 100 µM (inactive) in the assay with HCT-116; 88.5 µM (inactive) in the assay on HOP-92; > 100 µM (inactive) with SF-268; > 100 µM (inactive) in the assay with OVCAR-8; > 100 µM (inactive) in the assay with OVCAR-5.

As to `O=C(O)CCC(=O)OC1N=C(c2ccccc2Cl)c2cc([N+](=O)[O-])ccc2NC1=O` (stereo not drawn), the GI50 was 55.1 µM (inactive) in the assay with NCI-H522; > 100 µM (inactive) in the assay with HT-29; > 100 µM (inactive) with NCI-H460; > 100 µM (inactive) in the assay on UACC-62; > 100 µM (inactive) in the assay on EKVX; 40.7 µM (inactive) with KM12. Moreover, the GI50 in the assay with RXF 393 is 47.3 µM (inactive); in the assay with SK-MEL-28, 60.1 µM (inactive); with SN12C, 46.5 µM (inactive); in the assay with A549, > 100 µM (inactive); with OVCAR-4 it was 42.2 µM (inactive); in the assay on CCRF-CEM, 26.3 µM (inactive). The GI50 was 20.5 µM (inactive) in the assay with HCT-116; 69.2 µM (inactive) in the assay on HOP-92; 67.5 µM (inactive) with SF-268; 39 µM (inactive) with OVCAR-8; > 100 µM (inactive) in the assay with OVCAR-5.

Take `COC(=O)C1CC23C4=C(CCC41)CCC1CN4CC(C)C(CC(OC(C)=O)C12COC(C)=O)C43O` (stereo not drawn): the GI50 in the assay with SK-MEL-5, in the assay with NCI-H522, with HT-29, in the assay with NCI-H460, in the assay on UACC-62 and with EKVX was > 100 µM (inactive) each time. Also, the GI50 in the assay with KM12, in the assay with RXF 393, in the assay on SK-MEL-28, with SN12C, in the assay on A549 and in the assay on OVCAR-4 was > 100 µM (inactive) in each case. For the same molecule, the GI50 in the assay on CCRF-CEM is > 100 µM (inactive); with MOLT-4 it was 68.4 µM (inactive); in the assay with HCT-116, > 100 µM (inactive); in the assay on HOP-92, > 100 µM (inactive); in the assay on SF-268, > 100 µM (inactive); in the assay on OVCAR-8, > 100 µM (inactive). Moreover, the GI50 in the assay with OVCAR-5 was > 100 µM (inactive).

Consider `Cc1ccc(NC(=O)C(=O)C2C(=O)N(c3ccccc3)N=C2N)cc1C` (stereo not drawn), for which the GI50 with SK-MEL-5, in the assay on NCI-H522, with HT-29, in the assay with UACC-62, with EKVX and in the assay on KM12 was > 100 µM (inactive) throughout. In addition, the GI50 with SK-MEL-28, in the assay with SN12C, in the assay on A549, with OVCAR-4, in the assay with CCRF-CEM and in the assay on MOLT-4 was > 100 µM (inactive) in each case. The GI50 in the assay with HCT-116, in the assay on HOP-92, in the assay with SF-268, with NCI-H226, in the assay with OVCAR-8 and with OVCAR-5 was > 100 µM (inactive) in each case.

Regarding `CC1CC(=O)N(N(C)C)C2(C#N)C(=O)N=C(N)C12C#N` (stereo not drawn), the GI50 is > 100 µM (inactive) in the assay with SK-MEL-5; 32.4 µM (inactive) in the assay on NCI-H522; > 100 µM (inactive) in the assay with HT-29; 35.8 µM (inactive) in the assay on UACC-62; > 100 µM (inactive) in the assay on EKVX; > 100 µM (inactive) in the assay on KM12. In addition, the GI50 with RXF 393 is > 100 µM (inactive); in the assay with SN12C it was > 100 µM (inactive); with A549 it was > 100 µM (inactive); in the assay on OVCAR-4, > 100 µM (inactive); with CCRF-CEM, 23.2 µM (inactive); with MOLT-4, 36.7 µM (inactive). The GI50 in the assay on HCT-116, with HOP-92, in the assay on SF-268, with OVCAR-8 and with OVCAR-5 was > 100 µM (inactive) throughout.

For the molecule `N#CC(Cc1ccccc1)N(CCC1=CCCCC1)C(c1ccccc1)c1ccccc1` (stereo not drawn), the GI50 in the assay with SK-MEL-5 is 28 µM (inactive); with NCI-H522 it was 15.2 µM (inactive); in the assay on HT-29 it was 12.8 µM (inactive); in the assay with NCI-H460, 33.5 µM (inactive); with UACC-62, > 100 µM (inactive); in the assay with EKVX, 35.7 µM (inactive). Moreover, the GI50 in the assay on KM12 was > 100 µM (inactive); in the assay with RXF 393, 27.9 µM (inactive); in the assay with SK-MEL-28 it was 77.3 µM (inactive); with A549, 70.3 µM (inactive); with OVCAR-4, > 100 µM (inactive); in the assay with CCRF-CEM, 0.456 µM (active). Also, the GI50 is 66.8 µM (inactive) with MOLT-4; 15.8 µM (inactive) with HCT-116; 28.1 µM (inactive) with HOP-92; > 100 µM (inactive) with SF-268; > 100 µM (inactive) in the assay on OVCAR-8; 95.7 µM (inactive) with OVCAR-5.
